Calls of active or inactive are those of the source. No cut-off for these calls is given here.
Columns and labels:
Cholinesterase [1] = target: T1, Cholinesterase (Homo sapiens, UniProt P06276); experiment: Inhibition of BChE (unknown origin) at 0.1 mg/ml using thiocholine as substrate preincubated for 15 mins followed by substrate addition measured after 5 mins by Ellman's method
[2] = target: Acetylcholinesterase (Electrophorus electricus) (UniProt O42275); experiment: Inhibition of electric eel AChE at 0.1 mg/ml using acetylthiocholine as substrate preincubated for 15 mins followed by substrate addition measured after 5 mins by Ellman's method
Sequence of Acetylcholinesterase (Electrophorus electricus) (O42275 24-633 limits assumed): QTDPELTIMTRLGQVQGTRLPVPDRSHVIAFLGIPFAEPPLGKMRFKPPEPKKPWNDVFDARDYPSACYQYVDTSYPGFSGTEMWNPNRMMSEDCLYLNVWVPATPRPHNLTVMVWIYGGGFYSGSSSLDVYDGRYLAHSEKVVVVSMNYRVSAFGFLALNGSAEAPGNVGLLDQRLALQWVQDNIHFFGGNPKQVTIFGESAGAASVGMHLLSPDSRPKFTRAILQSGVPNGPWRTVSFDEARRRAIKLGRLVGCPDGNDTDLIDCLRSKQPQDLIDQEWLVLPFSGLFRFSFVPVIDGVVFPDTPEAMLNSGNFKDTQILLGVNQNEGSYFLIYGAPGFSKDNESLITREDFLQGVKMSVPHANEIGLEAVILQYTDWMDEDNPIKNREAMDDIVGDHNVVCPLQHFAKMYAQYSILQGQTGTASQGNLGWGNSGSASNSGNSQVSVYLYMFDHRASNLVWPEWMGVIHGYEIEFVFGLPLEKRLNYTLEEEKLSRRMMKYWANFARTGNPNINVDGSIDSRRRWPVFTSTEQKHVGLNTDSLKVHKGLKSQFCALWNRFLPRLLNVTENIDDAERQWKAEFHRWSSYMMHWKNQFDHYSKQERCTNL

Cholinesterase [3] = target: T1, Cholinesterase; experiment: Inhibition of BChE (unknown origin) using thiocholine as substrate preincubated for 15 mins followed by substrate addition measured after 5 mins by Ellman's method
Cholinesterase [4] = target: T1, Cholinesterase; experiment: Potency index, ratio of galantamine IC50 to compound IC50 for inhibition of BChE (unknown origin)
[5] = Selectivity ratio of IC50 for BChE (unknown origin) to IC50 for electric eel AChE
Acetylcholinesterase = Acetylcholinesterase (Electrophorus electricus, UniProt O42275); experiment: Inhibition of electric eel AChE using acetylthiocholine as substrate preincubated for 15 mins followed by substrate addition measured after 5 mins by Ellman's method
Sequence of Acetylcholinesterase (O42275 whole entry): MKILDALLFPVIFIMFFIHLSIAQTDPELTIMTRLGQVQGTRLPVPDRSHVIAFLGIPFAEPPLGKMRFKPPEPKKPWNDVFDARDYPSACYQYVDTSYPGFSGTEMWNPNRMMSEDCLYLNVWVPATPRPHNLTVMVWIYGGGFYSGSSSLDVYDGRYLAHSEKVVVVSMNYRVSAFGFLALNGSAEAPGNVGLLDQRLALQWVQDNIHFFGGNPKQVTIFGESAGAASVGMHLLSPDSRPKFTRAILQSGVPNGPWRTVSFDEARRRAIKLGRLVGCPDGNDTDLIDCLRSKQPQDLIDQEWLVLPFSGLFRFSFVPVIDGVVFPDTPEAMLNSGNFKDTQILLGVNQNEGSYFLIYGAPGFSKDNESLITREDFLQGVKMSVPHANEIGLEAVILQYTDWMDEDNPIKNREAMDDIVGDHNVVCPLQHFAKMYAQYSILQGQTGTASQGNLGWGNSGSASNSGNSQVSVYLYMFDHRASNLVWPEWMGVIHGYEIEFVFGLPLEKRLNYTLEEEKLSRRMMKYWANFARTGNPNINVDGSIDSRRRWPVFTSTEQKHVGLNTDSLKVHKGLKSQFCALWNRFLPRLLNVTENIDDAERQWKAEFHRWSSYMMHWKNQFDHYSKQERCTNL

[6] = target: Acetylcholinesterase (Electrophorus electricus) (UniProt O42275); experiment: Potency index, ratio of galantamine IC50 to compound IC50 for inhibition of electric eel AChE

T1 sequence (P06276 whole entry): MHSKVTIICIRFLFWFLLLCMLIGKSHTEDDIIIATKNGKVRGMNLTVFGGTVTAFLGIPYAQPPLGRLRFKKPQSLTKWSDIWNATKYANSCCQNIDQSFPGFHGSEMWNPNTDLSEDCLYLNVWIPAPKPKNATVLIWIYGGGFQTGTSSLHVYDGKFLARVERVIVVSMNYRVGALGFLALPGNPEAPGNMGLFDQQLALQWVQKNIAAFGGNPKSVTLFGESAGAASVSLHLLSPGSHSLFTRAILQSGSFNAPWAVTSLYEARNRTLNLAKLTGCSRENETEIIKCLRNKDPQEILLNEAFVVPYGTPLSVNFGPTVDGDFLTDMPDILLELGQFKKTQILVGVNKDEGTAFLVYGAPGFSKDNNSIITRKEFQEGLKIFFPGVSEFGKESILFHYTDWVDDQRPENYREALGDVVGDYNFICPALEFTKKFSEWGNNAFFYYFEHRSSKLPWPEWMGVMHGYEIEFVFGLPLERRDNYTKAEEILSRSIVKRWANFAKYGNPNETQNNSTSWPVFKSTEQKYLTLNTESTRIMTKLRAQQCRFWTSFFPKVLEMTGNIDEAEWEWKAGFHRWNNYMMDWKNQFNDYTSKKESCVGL

COc1ccc2cc(-c3cc(OC)c4c(c3CC=C(C)C)OC(C)(CCC=C(C)C)C=C4)oc2c1 (centres undefined)
inhibition (Cholinesterase [1]): inactive
inhibition [2]: inactive

COc1cc(-c2cc3ccc(O)cc3o2)c(CC=C(C)C)c2c1C=CC(C)(CCC=C(C)C)O2 (centres undefined)
IC50 (Cholinesterase [3]): 0.31 µM
Ratio IC50 (Cholinesterase [4]): < 10
inhibition [2]: inactive

COc1cc(OC)c(CC=C(C)C)c(-c2cc3ccc(O)cc3o2)c1CC=C(C)C [LAKOOCHIN A]
Ratio IC50 [5]: 0.5
IC50 (Acetylcholinesterase): 27.4 µM
IC50 (Cholinesterase [3]): 13.9 µM

COc1ccc2cc(-c3cc(O)c4c(c3CC=C(C)C)OC(C)(CCC=C(C)C)C=C4)oc2c1 (centres undefined)
IC50 (Cholinesterase [3]): 1.11 µM
Ratio IC50 (Cholinesterase [4]): < 10
inhibition [2]: inactive

COc1cc(O)c(C/C=C(\C)CCC=C(C)C)c(-c2cc3ccc(O)cc3o2)c1CC=C(C)C
IC50 (Cholinesterase [3]): 0.51 µM
Ratio IC50 (Cholinesterase [4]): < 10
inhibition [2]: inactive

Oc1cc(O)cc(/C=C/c2ccc(O)cc2O)c1 [OXYRESVERATROL]
IC50 (Cholinesterase [3]): 2.95 µM
inhibition [2]: inactive

COc1cc(OC)c(C/C=C(\C)CCC=C(C)C)c(-c2cc3ccc(O)cc3o2)c1CC=C(C)C
inhibition (Cholinesterase [1]): inactive
inhibition [2]: inactive

CC(C)=CCCC1(C)C=Cc2c(O)cc(-c3cc4ccc(O)cc4o3)c(CC=C(C)C)c2O1 (centres undefined)
Ratio IC50 [6]: 2
Ratio IC50 [5]: 17.2
IC50 (Acetylcholinesterase): 0.87 µM
IC50 (Cholinesterase [3]): 14.9 µM

COc1cc(O)c(CC=C(C)C)c(-c2cc3ccc(O)c(C/C=C(\C)CCC=C(C)C)c3o2)c1
Ratio IC50 [5]: 0.76
IC50 (Acetylcholinesterase): 61.9 µM
IC50 (Cholinesterase [3]): 47.2 µM

Oc1cc(O)c2c(c1)O[C@H](c1ccc(O)c(O)c1)[C@@H](O)C2
inhibition (Cholinesterase [1]): inactive
inhibition [2]: inactive

CC(C)=CCc1c(-c2cc3ccc(O)cc3o2)cc2c3c1O[C@@]1(C)CCC([C@@H]3C1)C(C)(C)O2 (some centres undefined)
IC50 (Cholinesterase [3]): 1.56 µM
inhibition [2]: inactive

CC(C)=CCC/C(C)=C/Cc1c(O)cc(O)c(CC=C(C)C)c1-c1cc2ccc(O)cc2o1 [LAKOOCHIN B]
Ratio IC50 [6]: 2
Ratio IC50 [5]: 0.09
IC50 (Acetylcholinesterase): 1.08 µM
IC50 (Cholinesterase [3]): 0.1 µM
Ratio IC50 (Cholinesterase [4]): 37

CC(C)=CCCC1(C)C=Cc2c(O)cc(-c3cc4c(O)cc(O)cc4o3)c(CC=C(C)C)c2O1 (centres undefined)
Ratio IC50 [6]: 2
Ratio IC50 [5]: 8.05
IC50 (Acetylcholinesterase): 1.1 µM
IC50 (Cholinesterase [3]): 8.86 µM

COc1cc(O)c(CC=C(C)C)c(-c2cc3ccc(O)cc3o2)c1C/C=C(\C)CCC=C(C)C
IC50 (Cholinesterase [3]): 0.63 µM
Ratio IC50 (Cholinesterase [4]): < 10
inhibition [2]: inactive

COc1ccc2cc(-c3c(CC=C(C)C)c(O)cc(O)c3C/C=C(\C)CCC=C(C)C)oc2c1
IC50 (Cholinesterase [3]): 0.99 µM
Ratio IC50 (Cholinesterase [4]): < 10
inhibition [2]: inactive
